From the supplement of paper PMC10307832

Compound: COc1cc(Nc2ncc(F)c(Nc3ccc4c(n3)NC(=O)C(C)(C)O4)n2)cc(OC)c1OC [R406] + O=C(CCCCCCC(=O)Nc1ccccc1)NO [Vorinostat] (partner 1 µM)
Experiment: relative viability (nuclei count vs DMSO), 5 days (fraction); higher = more cells survive
Settings: first compound 0.08 µM
Method in brief: (§1)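 After 5 days of treatment, lung cancer cells in 1536-well plates were fixed and stained in a single step (final 0.05% Triton X-100, 1% formaldehyde, 1 ug/ml Hoechst) and their nuclei counted on 4× images. Treatment had been applied by pin tool the day after seeding as one drug alone or as a fixed anchor-drug dose with five library-drug doses (not always all listed) in √10 steps. Relative viability is the nuclei count of treated wells divided by that of vehicle wells, and values are medians of duplicate plates.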

| Cell Line | relative viability |
| --- | --- |
| HCC-15 | 0.919 |
| PC-3 [JPC-3] | 0.811 |
| EKVX | 0.78 |
| LC-2-ad | 0.677 |
| NCI-H1975 | 0.722 |
| SK-LU-1 | 0.84 |
| ABC-1 | 1.33 |
| NCI-H1944 | 0.504 |
| NCI-H661 | 0.813 |
| RERF-LC-KJ | 0.669 |

Same assay, conditions: first compound 0.253 µM

| Cell Line | relative viability |
| --- | --- |
| HCC-15 | 0.921 |
| PC-3 [JPC-3] | 1.01 |
| EKVX | 0.567 |
| LC-2-ad | 0.748 |
| NCI-H1975 | 0.775 |
| SK-LU-1 | 0.822 |
| ABC-1 | 1.37 |
| NCI-H1944 | 0.585 |
| NCI-H661 | 0.772 |
| RERF-LC-KJ | 0.811 |

Same assay, conditions: first compound 0.8 µM

| Cell Line | relative viability |
| --- | --- |
| HCC-15 | 0.867 |
| PC-3 [JPC-3] | 0.861 |
| EKVX | 0.757 |
| LC-2-ad | 0.744 |
| NCI-H1975 | 0.73 |
| SK-LU-1 | 0.764 |
| ABC-1 | 1.35 |
| NCI-H1944 | 0.566 |
| NCI-H661 | 0.737 |
| RERF-LC-KJ | 0.732 |

Same assay, conditions: first compound 2.53 µM

| Cell Line | relative viability |
| --- | --- |
| HCC-15 | 0.842 |
| PC-3 [JPC-3] | 0.546 |
| EKVX | 0.6 |
| LC-2-ad | 0.336 |
| NCI-H1975 | 0.414 |
| SK-LU-1 | 0.555 |
| ABC-1 | 1.11 |
| NCI-H1944 | 0.466 |
| NCI-H661 | 0.796 |
| RERF-LC-KJ | 0.583 |

Same assay, conditions: first compound 8 µM

| Cell Line | relative viability |
| --- | --- |
| HCC-15 | 0.81 |
| PC-3 [JPC-3] | 0.381 |
| EKVX | 0.653 |
| LC-2-ad | 0.201 |
| NCI-H1975 | 0.213 |
| SK-LU-1 | 0.155 |
| ABC-1 | 0.765 |
| NCI-H1944 | 0.45 |
| NCI-H661 | 0.724 |
| RERF-LC-KJ | 0.552 |

Compound: COc1cc(Nc2ncc(F)c(Nc3ccc4c(n3)NC(=O)C(C)(C)O4)n2)cc(OC)c1OC [R406] + CCNC(=O)c1noc(-c2cc(C(C)C)c(O)cc2O)c1-c1ccc(CN2CCOCC2)cc1 [Luminespib] (partner 0.01 µM)
Experiment: as above
Settings: first compound 0.08 µM
Method in brief: as §1

| Cell Line | relative viability |
| --- | --- |
| HCC-15 | 0.289 |
| PC-3 [JPC-3] | 0.743 |
| EKVX | 0.863 |
| LC-2-ad | 0.982 |
| NCI-H1975 | 0.25 |
| SK-LU-1 | 0.192 |
| NCI-H1944 | 0.686 |
| NCI-H661 | 0.887 |
| RERF-LC-KJ | 1.25 |

Same assay, conditions: first compound 0.253 µM

| Cell Line | relative viability |
| --- | --- |
| HCC-15 | 0.518 |
| PC-3 [JPC-3] | 0.708 |
| EKVX | 0.885 |
| LC-2-ad | 1.13 |
| NCI-H1975 | 0.227 |
| SK-LU-1 | 0.203 |
| ABC-1 | 0.569 |
| NCI-H1944 | 0.805 |
| NCI-H661 | 0.956 |
| RERF-LC-KJ | 1.3 |

Same assay, conditions: first compound 0.8 µM

| Cell Line | relative viability |
| --- | --- |
| HCC-15 | 0.295 |
| PC-3 [JPC-3] | 0.903 |
| EKVX | 1.06 |
| LC-2-ad | 0.916 |
| NCI-H1975 | 0.187 |
| SK-LU-1 | 0.191 |
| ABC-1 | 0.27 |
| NCI-H1944 | 0.759 |
| NCI-H661 | 0.827 |
| RERF-LC-KJ | 1.19 |

Same assay, conditions: first compound 2.53 µM

| Cell Line | relative viability |
| --- | --- |
| HCC-15 | 0.298 |
| PC-3 [JPC-3] | 0.485 |
| EKVX | 0.702 |
| LC-2-ad | 0.456 |
| NCI-H1975 | 0.143 |
| SK-LU-1 | 0.151 |
| ABC-1 | 0.338 |
| NCI-H1944 | 0.369 |
| NCI-H661 | 0.977 |
| RERF-LC-KJ | 1.25 |

Same assay, conditions: first compound 8 µM

| Cell Line | relative viability |
| --- | --- |
| HCC-15 | 0.465 |
| PC-3 [JPC-3] | 0.509 |
| EKVX | 0.74 |
| LC-2-ad | 0.42 |
| NCI-H1975 | 0.116 |
| SK-LU-1 | 0.101 |
| ABC-1 | 0.213 |
| NCI-H1944 | 0.517 |
| NCI-H661 | 0.862 |
| RERF-LC-KJ | 0.725 |

Compound: O=C(/C=C/c1cccnc1)NCCCCC1CCN(C(=O)c2ccccc2)CC1 [Daporinad] + Cc1cc(Nc2cc(N3CCN(C)CC3)nc(Sc3ccc(NC(=O)C4CC4)cc3)n2)n[nH]1 [Tozasertib] (partner 0.1 µM)
Experiment: as above
Settings: first compound 0.0005 µM
Method in brief: as §1

| Cell Line | relative viability |
| --- | --- |
| HCC-15 | 0.476 |
| PC-3 [JPC-3] | 0.864 |
| EKVX | 0.392 |
| LC-2-ad | 0.516 |
| NCI-H1975 | 0.789 |
| SK-LU-1 | 0.316 |
| ABC-1 | 0.186 |
| NCI-H1944 | 0.273 |
| NCI-H661 | 0.368 |
| RERF-LC-KJ | 0.559 |

Same assay, conditions: first compound 0.001581 µM

| Cell Line | relative viability |
| --- | --- |
| HCC-15 | 0.366 |
| PC-3 [JPC-3] | 0.896 |
| EKVX | 0.457 |
| LC-2-ad | 0.544 |
| NCI-H1975 | 0.742 |
| SK-LU-1 | 0.289 |
| ABC-1 | 0.185 |
| NCI-H1944 | 0.252 |
| NCI-H661 | 0.339 |
| RERF-LC-KJ | 0.45 |

Same assay, conditions: first compound 0.005 µM

| Cell Line | relative viability |
| --- | --- |
| HCC-15 | 0.749 |
| PC-3 [JPC-3] | 0.938 |
| EKVX | 0.301 |
| LC-2-ad | 0.459 |
| NCI-H1975 | 0.661 |
| SK-LU-1 | 0.281 |
| ABC-1 | 0.179 |
| NCI-H1944 | 0.261 |
| NCI-H661 | 0.345 |
| RERF-LC-KJ | 0.562 |

Same assay, conditions: first compound 0.01581 µM

| Cell Line | relative viability |
| --- | --- |
| HCC-15 | 0.484 |
| PC-3 [JPC-3] | 0.952 |
| EKVX | 0.396 |
| LC-2-ad | 0.427 |
| NCI-H1975 | 0.692 |
| SK-LU-1 | 0.35 |
| ABC-1 | 0.209 |
| NCI-H1944 | 0.286 |
| NCI-H661 | 0.292 |
| RERF-LC-KJ | 0.517 |

Compound: COc1cc(Nc2ncc(F)c(Nc3ccc4c(n3)NC(=O)C(C)(C)O4)n2)cc(OC)c1OC [R406] + Cc1nc(Nc2ncc(C(=O)Nc3c(C)cccc3Cl)s2)cc(N2CCN(CCO)CC2)n1 [Dasatinib] (partner 0.075 µM)
Experiment: as above
Settings: first compound 0.08 µM
Method in brief: as §1

| Cell Line | relative viability |
| --- | --- |
| HCC-15 | 0.629 |
| PC-3 [JPC-3] | 0.951 |
| EKVX | 0.626 |
| LC-2-ad | 0.572 |
| NCI-H1975 | 0.377 |
| SK-LU-1 | 0.164 |
| ABC-1 | 0.535 |
| NCI-H1944 | 0.22 |
| NCI-H661 | 0.847 |
| RERF-LC-KJ | 0.782 |

Same assay, conditions: first compound 0.253 µM

| Cell Line | relative viability |
| --- | --- |
| HCC-15 | 0.735 |
| PC-3 [JPC-3] | 1.09 |
| EKVX | 0.32 |
| LC-2-ad | 0.649 |
| NCI-H1975 | 0.479 |
| SK-LU-1 | 0.174 |
| ABC-1 | 0.54 |
| NCI-H1944 | 0.207 |
| NCI-H661 | 0.824 |
| RERF-LC-KJ | 0.878 |

Same assay, conditions: first compound 0.8 µM

| Cell Line | relative viability |
| --- | --- |
| HCC-15 | 0.662 |
| PC-3 [JPC-3] | 1.27 |
| EKVX | 0.511 |
| LC-2-ad | 0.62 |
| NCI-H1975 | 0.379 |
| SK-LU-1 | 0.186 |
| ABC-1 | 0.415 |
| NCI-H1944 | 0.209 |
| NCI-H661 | 1.1 |
| RERF-LC-KJ | 0.939 |

Same assay, conditions: first compound 2.53 µM

| Cell Line | relative viability |
| --- | --- |
| HCC-15 | 0.602 |
| PC-3 [JPC-3] | 0.915 |
| EKVX | 0.402 |
| LC-2-ad | 0.282 |
| NCI-H1975 | 0.174 |
| SK-LU-1 | 0.0685 |
| ABC-1 | 0.363 |
| NCI-H1944 | 0.164 |
| NCI-H661 | 0.684 |
| RERF-LC-KJ | 0.678 |

Same assay, conditions: first compound 8 µM

| Cell Line | relative viability |
| --- | --- |
| HCC-15 | 0.331 |
| PC-3 [JPC-3] | 0.737 |
| EKVX | 0.367 |
| LC-2-ad | 0.203 |
| NCI-H1975 | 0.112 |
| SK-LU-1 | 0.0703 |
| ABC-1 | 0.298 |
| NCI-H1944 | 0.153 |
| NCI-H661 | 0.402 |
| RERF-LC-KJ | 0.503 |
